Data set [1] is described as follows: Ratio of catalytic constant to that of Michaelis-Menten constant for LTA4 hydrolase-catalyzed hydrolysis was determined.
The target in data set [2] is T1, Leukotriene A-4 hydrolase (Homo sapiens, UniProt P09960).
T1 sequence (P09960 whole entry): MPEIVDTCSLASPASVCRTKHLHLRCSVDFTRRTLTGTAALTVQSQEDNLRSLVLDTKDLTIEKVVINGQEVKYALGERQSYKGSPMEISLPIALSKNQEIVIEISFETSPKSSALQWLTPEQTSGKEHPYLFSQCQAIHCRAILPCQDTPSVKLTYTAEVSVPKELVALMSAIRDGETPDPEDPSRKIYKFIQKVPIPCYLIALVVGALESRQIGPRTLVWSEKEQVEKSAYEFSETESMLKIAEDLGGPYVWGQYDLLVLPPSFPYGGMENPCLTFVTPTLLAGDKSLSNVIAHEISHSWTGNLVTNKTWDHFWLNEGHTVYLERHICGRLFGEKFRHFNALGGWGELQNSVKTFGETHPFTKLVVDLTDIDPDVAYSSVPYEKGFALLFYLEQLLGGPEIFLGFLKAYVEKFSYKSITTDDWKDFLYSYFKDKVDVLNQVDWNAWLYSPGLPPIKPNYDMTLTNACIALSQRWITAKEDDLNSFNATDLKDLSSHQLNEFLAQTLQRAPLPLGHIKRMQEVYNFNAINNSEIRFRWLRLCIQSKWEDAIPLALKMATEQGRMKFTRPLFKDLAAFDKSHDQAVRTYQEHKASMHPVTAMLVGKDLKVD
The data set can be described thus: Inhibitory activity against Leukotriene A4 hydrolase from human leukocytes.

Data set [3] deals with T1, Leukotriene A-4 hydrolase. Kind of data set: Compound was tested for inhibitory activity against Leukotriene A4 hydrolase from human leukocytes; NI means no inhibition at 1 mM.
Substrate in data set [4]: CC(C)C[C@H](N)C(=O)Nc1ccc([N+](=O)[O-])cc1
Kind of data set: (§1) Michaelis-Menten constant of compound for Leukotriene A4 hydrolase catalyzed hydrolysis was determined.

Substrate in data set [5]: CCCCC/C=C\C/C=C\C=C\C=C\[C@@H]1O[C@H]1CCCC(=O)O
The description is as §1.

Substrate in data set [6]: C[C@@H](N)C(=O)Nc1ccc([N+](=O)[O-])cc1
The data set is described as §1.

Substrate in data set [7]: NC(N)=NCCC[C@@H](N)C(=O)Nc1ccc([N+](=O)[O-])cc1
The description is as §1.

Substrate in data set [8]: NCCCC[C@@H](N)C(=O)Nc1ccc([N+](=O)[O-])cc1
The description is as §1.

Substrate in data set [9]: O=C(Nc1ccc([N+](=O)[O-])cc1)[C@@H]1CCCN1
Described as §1.

Substrate in data set [10]: C[C@@H](N)C(=O)Nc1ccc([N+](=O)[O-])cc1
The data set can be described thus: (§2) Maximum velocity of amino acid amides was tested as substrates for LTA4 hydrolase-catalyzed hydrolysis.

Substrate in data set [11]: NCCCC[C@@H](N)C(=O)Nc1ccc([N+](=O)[O-])cc1
Described as §2.

Substrate in data set [12]: C[C@H](N)C(=O)Nc1ccc([N+](=O)[O-])cc1
The data set can be described thus: Maximum velocity of amino acid amides was tested as substrates for Leukotriene A4 hydrolase.

Substrate in data set [13]: CC(C)C[C@H](N)C(=O)Nc1ccc([N+](=O)[O-])cc1
Kind of data set: (§3) Maximum velocity of amino acid amides was tested as substrates for Leukotriene A4 hydrolase catalyzed hydrolysis.

Substrate in data set [14]: CCCCC/C=C\C/C=C\C=C\C=C\[C@@H]1O[C@H]1CCCC(=O)O
The description is as §3.

Substrate in data set [15]: NC(N)=NCCC[C@@H](N)C(=O)Nc1ccc([N+](=O)[O-])cc1
The data set is described as §3.

Substrate in data set [16]: O=C(Nc1ccc([N+](=O)[O-])cc1)[C@@H]1CCCN1
Described as §3.

Some results are limits rather than exact numbers.

Consider `NCCCC[C@@H](N)C(=O)Nc1ccc([N+](=O)[O-])cc1`, for which, in data set [1], the k cat/Km turned out to be 350 M⁻¹ s⁻¹.

For `CCCCC/C=C\C\C=C/C=C/C=C/[C@@H]1O[C@H]1CCCC(=O)O`, in data set [1], the k cat/Km came to 90000 M⁻¹ s⁻¹.

Molecule `NC(Cc1ccccc1)P(=O)(O)NCC(=O)O` (stereo unspecified) gave a 50% inhibitory concentration (IC50) in data set [2] of roughly 200 µM.

With `O=C(Nc1ccc([N+](=O)[O-])cc1)[C@@H]1CCCN1`, the k cat/Km in [1] was 1500 M⁻¹ s⁻¹.

`COC(=O)C(S)[C@H](N)Cc1ccccc1` (stereo partly specified) showed a concentration for half-maximal inhibition (IC50) in data set [2] greater than 250 µM.

`N[C@@H](Cc1ccccc1)[C@H](O)C(=O)O` had an IC50 in [2] greater than 1000 µM.

In turn, `CCOC(=O)CC(F)(F)C(=O)/C=C/c1ccccc1` returned a half-inhibitory concentration (IC50) in data set [2] greater than 5000 µM.

In the case of `N[C@H](Cc1ccccc1)[C@H](O)C(=O)NCCC(=O)O`, in data set [2], the half-maximal inhibitory concentration (IC50) is roughly 100 µM.

Turning to `COC(=O)C(S)[C@@H](N)Cc1ccccc1` (stereo partly specified), the IC50 in data set [2] was roughly 250 µM.

As to `C[C@@H](N)C(=O)Nc1ccc([N+](=O)[O-])cc1`, in data set [1], the k cat/Km was found to be 1200 M⁻¹ s⁻¹.

Consider `C[C@H](CS)C(=O)N1CCC[C@H]1C(=O)O` [CAPTOPRIL], for which the midpoint of inhibition in [2], the IC50, lay at 0.07 µM.

For the molecule `CC(C)CC(N)C(=O)Nc1ccc([N+](=O)[O-])cc1` (single isomer, unassigned), in [1], the k cat/Km is 500 M⁻¹ s⁻¹.

Take `NC(N)=NCCC[C@@H](N)C(=O)Nc1ccc([N+](=O)[O-])cc1`: the k cat/Km in data set [1] was found to be 750 M⁻¹ s⁻¹.

As for `N[C@@H](Cc1ccccc1)[C@H](O)C(=O)NCCC(=O)O`, the IC50 in data set [2] is roughly 80 µM.

As to `COC(=O)[C@@H](O)[C@H](N)Cc1ccccc1`, in [3], the IC50 result was “No inhibition”.

On to `COC(=O)[C@H](O)[C@H](N)Cc1ccccc1`, for which the IC50 entry in data set [3] is on record as “No inhibition”.

As to `N[C@H](Cc1ccccc1)[C@H](O)C(=O)O`, the IC50 result in data set [3] was “No inhibition”.

`COC(=O)[C@H](O)[C@@H](N)Cc1ccccc1` yielded a 50% inhibitory concentration (IC50) in [2] greater than 500 µM.

B1: Leukotriene A-4 hydrolase (Homo sapiens), P09960 (protein)
chain: T1 sequence (P09960 whole entry)
For the molecule B1, the Michaelis-Menten constant (Km) in data set [4] worked out at 300 µM; in data set [5], 7.6 µM; in data set [6] it was 500 µM; in data set [7] it was 200 µM; in [8], 100 µM; in data set [9], 100 µM. In addition, the Vmax (nM min-1 mg-1) in data set [10] came out at 530; in data set [11], 30; in data set [12], 0; in [13], 130; in data set [14], 572; in data set [15], 140. Besides, the Vmax (nM min-1 mg-1) in [16] was determined as 130.

The values are drawn from ChEMBL document CHEMBL1125953, “Probing the inhibition of leukotriene A4 hydrolase based on its aminopeptidase activity” (Bioorg Med Chem Lett, 1991).
